Reference: patent US20220356174A1, “PYRIDIN-2-ONE COMPOUNDS USEFUL AS SMARCA2 ANTAGONISTS” (Epizyme, Inc., priority 2018, published 2022)
pIC50: −log10 of the molar value. Read-outs that look alike come from different tables or passages of the source.

Assays:
FL-SMARCA4 = FL-SMARCA4 (Homo sapiens, UniProt P51532); experiment: SMARCA4 ATPase activity assay (ADP-Glo, chicken mononucleosome substrate)
[1] = molecular target: T1, FL-SMARCA2 (full-length human SMARCA2 isoform 1) (Homo sapiens, UniProt P51531); experiment: SMARCA2 ATPase activity assay (ADP-Glo, chicken mononucleosome substrate); format: biochemical; settings: ATPase assay, enzyme 5 nM, ATP 250 uM, chicken mononucleosome 10 nM, 30 min preincubation
T1 construct: FLAG tag (YKDDDDK) (C); made in house; host or cells: Sf21 insect cells (baculovirus, pFastBacI)

A549 cells [2] = experiment: Long term proliferation (LTP) assay, day 15 IC50 in A549 cells; format: cell-based; settings: Homo sapiens, 360 h
A549 cells [3] = experiment: High-throughput proliferation (HTP) assay for A549 cells (CellTiter-Glo, 7 days); format: cell-based; settings: Homo sapiens, 168 h, read-out: A549 SMARCA2 IC50
Summary of the method: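 Seven-day growth of A549 (62.5 cells/well, F12K with 10% HI-FBS, 37° C.) with compound, read by CellTiter-Glo ATP luminescence. Percent inhibition scaled between DMSO wells and 10 μM Doxorubicin wells, then fitted for EC50 and IC50.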

SMARCA2 = molecular target: T2, SMARCA2 (Homo sapiens, UniProt P51531); experiment: SMARCA2 FRET nucleosome remodeling activity assay; format: biochemical
T2 construct: FLAG tag (YKDDDDK) (C); made in house; host or cells: Sf21 insect cells (baculovirus, pFastBacI)
Method: The SMARCA2 remodeling assay was initiated by the addition of 2 uL of a nucleosome remodeling assay substrate and ATP mixture (final volume=10 uL). […] The assays were terminated after 15 minutes by the addition of 2 uL EDTA (final concentration of 25 mM). The SMARCA2 remodeling activity was determined by measuring the fluorescence ratio of the Cy3 and Cy5 labels ([…]). The remodeling of the nucleosome substrate causes an increase in the spacing between the Cy3 and Cy5 labels and therefore a reduction in FRET and an increase in Cy3/Cy5 fluorescence ratio.

H358 cells = experiment: High-throughput proliferation (HTP) assay for H358 cells (CellTiter-Glo, 7 days); format: cell-based; settings: Homo sapiens, NCI-H358, 168 h, read-out: H358 SMARCA2 IC50
Summary of the method: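 Cells were plated at 1,000 cells/well in RPMI 1640 + 10% HI-FBS + 1% pen/strep on pre-dispensed compound and incubated 7 days at 37 °C, 5% CO2. Viability was read as ATP luminescence with CellTiter-Glo after 30 min at RT. DMSO served as 0% and 10 µM doxorubicin as 100% inhibition for EC50/IC50.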

[4] = FL-SMARCA4 IC50, Table 3.2, ATPase assay, enzyme 5 nM, ATP 250 uM, chicken mononucleosome 10 nM, 30 min preincubation
[5] = FL-SMARCA4 IC>50, Table 3c.2, ATPase assay, enzyme 5 nM, ATP 250 uM, chicken mononucleosome 10 nM, 30 min preincubation

T2 sequence (P51531 with tags, fused parts or gaps): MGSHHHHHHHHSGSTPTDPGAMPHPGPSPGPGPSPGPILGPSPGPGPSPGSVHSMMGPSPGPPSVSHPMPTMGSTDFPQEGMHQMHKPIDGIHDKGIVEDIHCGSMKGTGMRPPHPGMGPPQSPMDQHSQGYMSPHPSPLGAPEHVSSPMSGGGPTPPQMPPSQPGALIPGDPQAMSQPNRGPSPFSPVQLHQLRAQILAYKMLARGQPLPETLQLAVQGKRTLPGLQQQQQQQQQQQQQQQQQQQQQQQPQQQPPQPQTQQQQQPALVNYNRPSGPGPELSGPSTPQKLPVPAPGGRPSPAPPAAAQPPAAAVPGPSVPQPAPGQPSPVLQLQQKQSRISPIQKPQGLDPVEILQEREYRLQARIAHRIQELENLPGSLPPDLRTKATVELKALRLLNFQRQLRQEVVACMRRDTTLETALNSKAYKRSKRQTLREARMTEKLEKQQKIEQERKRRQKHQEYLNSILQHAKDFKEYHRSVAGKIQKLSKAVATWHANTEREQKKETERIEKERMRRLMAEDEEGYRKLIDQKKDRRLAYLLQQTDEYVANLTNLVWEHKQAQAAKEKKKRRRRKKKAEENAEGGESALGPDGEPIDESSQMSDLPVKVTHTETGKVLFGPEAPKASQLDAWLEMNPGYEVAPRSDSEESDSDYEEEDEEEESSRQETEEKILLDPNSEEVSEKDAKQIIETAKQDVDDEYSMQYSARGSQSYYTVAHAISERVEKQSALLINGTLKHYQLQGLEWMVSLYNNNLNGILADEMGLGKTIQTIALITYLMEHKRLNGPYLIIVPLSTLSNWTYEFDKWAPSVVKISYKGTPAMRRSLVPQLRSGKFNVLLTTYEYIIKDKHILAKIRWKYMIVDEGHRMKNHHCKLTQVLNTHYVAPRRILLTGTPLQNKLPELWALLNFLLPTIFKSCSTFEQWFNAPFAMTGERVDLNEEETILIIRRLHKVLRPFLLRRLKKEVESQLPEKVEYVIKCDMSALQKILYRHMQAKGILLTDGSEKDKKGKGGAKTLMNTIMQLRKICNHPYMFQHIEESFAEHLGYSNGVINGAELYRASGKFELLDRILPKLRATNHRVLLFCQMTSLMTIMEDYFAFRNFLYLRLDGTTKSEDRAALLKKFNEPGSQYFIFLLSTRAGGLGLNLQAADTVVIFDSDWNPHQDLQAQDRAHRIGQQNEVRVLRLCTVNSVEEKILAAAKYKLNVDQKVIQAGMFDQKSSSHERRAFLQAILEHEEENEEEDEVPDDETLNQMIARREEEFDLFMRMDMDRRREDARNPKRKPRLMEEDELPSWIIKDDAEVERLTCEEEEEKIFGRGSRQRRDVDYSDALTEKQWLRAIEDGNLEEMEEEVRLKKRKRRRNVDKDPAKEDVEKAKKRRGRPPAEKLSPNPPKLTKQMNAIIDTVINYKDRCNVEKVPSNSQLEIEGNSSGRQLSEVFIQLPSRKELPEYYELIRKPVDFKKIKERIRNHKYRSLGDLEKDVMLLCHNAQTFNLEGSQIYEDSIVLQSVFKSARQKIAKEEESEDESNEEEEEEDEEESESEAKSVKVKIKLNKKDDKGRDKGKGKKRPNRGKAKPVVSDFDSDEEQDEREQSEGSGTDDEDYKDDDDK
T1 sequence (P51531 with tags, fused parts or gaps): as above
FL-SMARCA4, sequence (P51532 whole entry, canonical isoform): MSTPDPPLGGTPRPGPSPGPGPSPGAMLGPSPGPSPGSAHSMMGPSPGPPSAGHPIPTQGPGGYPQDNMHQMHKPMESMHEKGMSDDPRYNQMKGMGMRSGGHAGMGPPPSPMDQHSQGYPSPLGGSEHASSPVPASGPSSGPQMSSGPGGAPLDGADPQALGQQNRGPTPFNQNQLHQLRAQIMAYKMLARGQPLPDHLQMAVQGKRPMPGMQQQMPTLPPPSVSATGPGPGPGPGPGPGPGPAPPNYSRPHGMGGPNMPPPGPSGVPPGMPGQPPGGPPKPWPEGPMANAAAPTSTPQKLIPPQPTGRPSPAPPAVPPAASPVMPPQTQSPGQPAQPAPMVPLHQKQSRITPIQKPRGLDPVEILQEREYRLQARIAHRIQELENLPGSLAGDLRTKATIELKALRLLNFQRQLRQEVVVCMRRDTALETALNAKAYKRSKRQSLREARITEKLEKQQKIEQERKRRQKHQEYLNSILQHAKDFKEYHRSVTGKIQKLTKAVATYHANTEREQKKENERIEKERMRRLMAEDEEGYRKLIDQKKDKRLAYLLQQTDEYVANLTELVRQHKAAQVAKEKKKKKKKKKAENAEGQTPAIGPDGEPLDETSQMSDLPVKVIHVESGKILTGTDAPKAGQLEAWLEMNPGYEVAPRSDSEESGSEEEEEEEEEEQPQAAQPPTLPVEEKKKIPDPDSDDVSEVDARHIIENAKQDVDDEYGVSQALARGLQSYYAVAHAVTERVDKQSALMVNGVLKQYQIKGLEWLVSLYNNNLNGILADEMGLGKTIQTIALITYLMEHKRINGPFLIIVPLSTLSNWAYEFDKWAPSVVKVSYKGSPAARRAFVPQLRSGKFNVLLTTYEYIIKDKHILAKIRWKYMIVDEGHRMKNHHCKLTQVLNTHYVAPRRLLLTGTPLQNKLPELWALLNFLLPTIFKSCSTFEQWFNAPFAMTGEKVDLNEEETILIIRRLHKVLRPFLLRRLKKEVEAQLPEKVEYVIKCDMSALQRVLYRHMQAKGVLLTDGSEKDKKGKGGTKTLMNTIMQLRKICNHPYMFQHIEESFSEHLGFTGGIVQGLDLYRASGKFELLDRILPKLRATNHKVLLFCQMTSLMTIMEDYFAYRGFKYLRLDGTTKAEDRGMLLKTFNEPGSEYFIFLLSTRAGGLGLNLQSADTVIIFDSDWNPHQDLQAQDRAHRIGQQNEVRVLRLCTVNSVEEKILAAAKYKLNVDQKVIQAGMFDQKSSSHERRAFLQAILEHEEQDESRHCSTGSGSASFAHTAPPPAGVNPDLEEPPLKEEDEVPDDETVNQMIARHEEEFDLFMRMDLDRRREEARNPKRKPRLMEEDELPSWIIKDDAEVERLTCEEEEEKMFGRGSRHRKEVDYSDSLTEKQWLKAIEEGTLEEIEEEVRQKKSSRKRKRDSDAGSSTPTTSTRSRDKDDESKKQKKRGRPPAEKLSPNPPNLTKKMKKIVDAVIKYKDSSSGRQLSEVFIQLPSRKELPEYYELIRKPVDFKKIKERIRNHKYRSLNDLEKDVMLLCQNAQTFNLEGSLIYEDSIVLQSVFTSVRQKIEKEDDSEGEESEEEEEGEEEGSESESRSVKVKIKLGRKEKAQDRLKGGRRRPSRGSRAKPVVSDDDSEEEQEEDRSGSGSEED

Row | pIC50 (FL-SMARCA4; [4]) | pIC50 ([1]; Table 3.1) | pIC50 (A549 cells [2]) | pIC50 (A549 cells [3]) | pIC50 (SMARCA2) | pIC50 (FL-SMARCA4; [5]) | pIC50 ([1]; Table 3c.1) | pIC50 (H358 cells) | pIC50 (FL-SMARCA4; FL-SMARCA4 IC50) | pIC50 ([1]; Table 3d.1, read-out: FL-SMARCA2 IC>50) | Structure (SMILES)
1 | 6.64 | 7.29 | 6.75 | 5.61 |  |  |  |  |  |  | O=C(Nc1cc(F)c(=O)n(CCF)c1)c1cc(F)c(F)s1 [Compound 259]
2 |  |  | 7.06 | 6.43 |  | 7.53 | 8.06 | < 5.00 |  |  | Cc1cc(C#Cc2cc(C(=O)Nc3cc(F)c(=O)n(CC(F)F)c3)sc2Cl)sn1 [Compound 64c]
3 | 6.79 | 7.32 | 6.27 | 5.87 | 7.22 |  |  |  |  |  | O=C(Nc1cc(F)c(=O)n(CCF)c1)c1cnc(Cl)s1 [Compound 142]
4 | 6.83 | 7.33 |  | 5.90 | 7.05 |  |  |  |  |  | N#Cc1sc(C(=O)Nc2cc(F)c(=O)n(CC(F)(F)F)c2)cc1Cl [Compound 140]
5 | 6.57 | 7.26 | ≤ 4.70 | ≤ 4.70 | 7.09 |  |  |  |  |  | N#Cc1cc(C(=O)Nc2cc(F)c(=O)n(CCF)c2)[nH]n1 [Compound 176]
6 |  | 5.90 | 4.82 |  |  |  |  |  |  |  | CCn1cc(NC(=O)c2cc(Cl)c(Cl)s2)ccc1=O [Compound 43]
7 | 6.71 | 7.29 |  | 6.04 | 6.94 |  |  |  |  |  | O=C(Nc1cc(F)c(=O)n(CCF)c1)c1cc(Cl)c(Cl)s1 [Compound 129]
8 | 6.74 | 7.42 |  | 6.22 | 7.74 |  |  |  |  |  | N#Cc1cc(C(=O)Nc2cc(F)c(=O)n(CCF)c2)sc1Cl [Compound 196]
9 |  | < 4.30 | ≤ 4.52 |  |  |  |  |  |  |  | Cn1c(C(=O)Nc2ccc(=O)n(-c3ccccc3)c2)cc(Cl)c1Cl [Compound 47]

The next lines start with the molecule.

Row | Structure (SMILES) | pIC50 (FL-SMARCA4; [4]) | pIC50 ([1]; Table 3.1) | pIC50 (A549 cells [2]) | pIC50 (A549 cells [3]) | pIC50 (SMARCA2) | pIC50 (FL-SMARCA4; [5]) | pIC50 ([1]; Table 3c.1) | pIC50 (H358 cells) | pIC50 (FL-SMARCA4; FL-SMARCA4 IC50) | pIC50 ([1]; Table 3d.1, read-out: FL-SMARCA2 IC>50)
10 | O=C(Nc1cc(F)c(=O)n(CCF)c1)c1cc(F)c(C(F)F)s1 [Compound 324] | 6.86 | 7.46 | 6.55 |  |  |  |  |  |  | 
11 | O=C(Nc1cc(F)c(=O)n(CC(F)F)c1)c1cc(F)c(Cl)s1 [Compound 323] | 7.17 | 7.72 | 6.97 | 6.50 |  |  |  |  |  | 
12 | O=C(Nc1cc(F)c(=O)n(CCF)c1)c1cc(F)c(Cl)s1 [Compound 260] | 7.18 | 7.82 | 7.03 | 6.28 | 7.74 |  |  |  |  | 
13 | N#Cc1ncc(C(=O)Nc2cc(F)c(=O)n(CC(F)(F)F)c2)o1 [Compound 267] | < 4.30 | < 4.30 | ≤ 5.00 |  |  |  |  |  |  | 
14 | N#Cc1ncc(C(=O)Nc2cc(F)c(=O)n(CCF)c2)s1 [Compound 138] | 7.79 | 8.19 | ≤ 4.70 | ≤ 4.70 | 7.85 |  |  |  |  | 
15 | CCn1cc(NC(=O)c2cc(C#N)c(C#N)s2)cc(Cl)c1=O [Compound 191] | 6.74 | 7.34 | 5.08 | 4.87 | 7.19 |  |  |  |  | 
16 | O=C(Nc1cc(F)c(=O)n(CC(F)F)c1)c1cc(F)c(C(F)F)s1 [Compound 325] | 6.79 | 7.45 | 6.51 |  |  |  |  |  |  | 
17 | Cc1ncc(C#Cc2cc(C(=O)Nc3cc(F)c(=O)n(CC(F)F)c3)sc2Cl)o1 [Compound 62c] |  |  | 7.05 | 6.26 |  | 7.57 | 8.09 | < 5.00 |  | 
18 | O=C(Nc1ccc(=O)n(CCF)c1)c1cc(Cl)c(Cl)s1 [Compound 80] | 6.12 | 6.68 | 5.20 | 4.94 |  |  |  |  |  | 
19 | O=C(Nc1cc(F)c(=O)n(CC(F)F)c1)c1cc(C#Cc2ccncc2)c(Cl)s1 [Compound 345] | 7.42 | 7.78 | 7.24 | 6.45 |  |  |  | < 5.00 |  | 
20 | N#Cc1sc(C(=O)Nc2cc(F)c(=O)n(CC(F)F)c2)cc1C(F)(F)F [Compound 96c] |  |  | ≤ 5.00 | < 5.00 |  | 4.53 | 4.98 | < 5.00 |  | 
21 | CCn1cc(NC(=O)c2cc(Cl)c(Cl)s2)ncc1=O [Compound 18d] |  |  | ≤ 4.52 |  |  |  |  |  | < 4.30 | < 4.30
